The values that follow come from patent publication US20230125667A1, “NOVEL TDZD ANALOGS AS AGENTS THAT DELAY, PREVENT, OR REVERSE AGE-ASSOCIATED DISEASES AND AS ANTI-CANCER AND ANTILEUKEMIC AGENTS” (United States Government as represented by the Department …, priority 2020, published 2023).

Entries after “also recorded” stand apart in the source; their conditions may differ. Where only a bound is given, the exact number is not on record here.

Test [1] deals with SH-SY5Y-APPSw cells. In words: Thioflavin-T staining of amyloid-like aggregates in SH-SY5Y-APPSw cells. It counts as cell-based, human. On the procedure: (§1) Several TDZD-conjugated drugs (putative GSK-3 inhibitors) were evaluated for their ability to reduce accumulation of protein aggregates, and for protection against aggregation-associated end-points in the following model systems: (i.) SH-SY5Y-APPSw, a neuroblastoma cell line expressing the Swedish mutation of Amyloid Precursor Protein (APPSw), and thus predisposed to form β-amyloid deposits; (ii.) C. elegans strain CL4176, a model of Alzheimer-like amyloidopathy that can be induced to express human Aβ1-42 in muscle, or may express it at a lower level without induction; (iii.) C. elegans strain AM141, a model of Huntington-like polyglutamine aggregation that constitutively expresses Q40::YFP (a tract of 40 glutamines fused in-frame to yellow fluorescent protein) in muscle cells and forms aggregates progressively with adult aging. The TDZD analog PNR-962 (a putative GSK-3 inhibitor) and other related compounds (not shown) were protective in all aggregation assays.
First, the effects of TDZD analogues were tested on the human neuroblastoma cell line SH-SY5Y-APPSw, a model of Alzheimer-like amyloid aggregation expressing the “Sw” mutant form of Amyloid Precursor Protein, APP. These drugs all produced significant reductions in amyloid-like aggregates, by 30-50% as quantified by thioflavin-T staining intensity (data for PNR-962 are shown in FIG. 4). Modified TDZD-8 analogues PNR-962 and BSK-179 are more anti-aggregative than TDZD-8, lowering total amyloid-staining intensity by a further 14% (data not shown).
Following previously described experimental procedures (Liu, et al. (2005). S100B-induced microglial and neuronal IL-1 expression is mediated by cell type-specific transcription factors. Journal of Neurochemistry. 92(3): 546-553), SH-SY5Y-APPSw neuronal cells expressing an aggregation-prone double mutant of amyloid precursor protein (APPSw) were cultured in DMEM plus 10% (v/v) fetal bovine serum (FBS) at 37° C. Cells were suspended in trypsin/EDTA and rinsed in PBS prior to re-plating or harvesting. […] Human neuroblastoma cells were treated with PNR962, either simultaneous with sAPPα or beginning 1 h prior to sAPPα addition (pre-treatment) in order to ascertain the protective benefits of PNR962 on protein aggregation in human neuroblastoma cell lines. A similar experimental procedure was followed to examine the effect of treatment with these analogs on non-neuronal human cells, exposing human embryonic kidney cells (HEK) that express tau-like aggregates (found in AD-associated diseases) to 0.001, 0.01, and 1-μM doses of TDZD-8 and its analogues.
To observe the protective effects of the novel TDZD analogs on protein aggregation in SY5Y-APPSw cells, using DMEM medium containing 10% fetal calf serum in […], cells were cultured at 37′C for 26 hrs allowing cells to approximately double in number. After 48 h of cell incubation in the presence of specified concentrations of drug or vehicle, cells were fixed 15 min in formaldehyde (4% v/v), washed, and stained 20 min at ˜22° C. in a dark container with 0.1% w/v Thioflavin T mixed with DAPI (1 μg/ml; Life Technologies, Grand Island, N.Y., USA). […] The intensity of aggregate/thioflavin-T fluorescence per field was quantified via an Image J plug-in developed in-house, and normalized to the number of DAPI^+ nuclei counted per field, to obtain an average intensity of aggregates per cell for each treatment.

Test [2] relates to C. elegans strain CL4176. In words: Amyloid-associated paralysis in C. elegans strain CL4176. The following applies: after induction of Aβ1-42 in muscle (FIG. 5). The class given is in vivo.
The subject of test [3] is C. elegans strain AM141. In words: Q40::YFP aggregates in C. elegans strain AM141. It counts as in vivo. On the procedure: as §1
Fresh agar plates supporting bacterial lawns, which serve as food for C. elegans, were prepared at least 1 day ahead of use. C. elegans AM141 (forming Q40::YFP aggregates in muscle, progressively in early adulthood) were placed on these 100-mm plates. Day-4 adult worms were lysed with alkaline hypochlorite solution to obtain eggs from worms, a procedure that permits synchronization of worms in a cohort. Eggs were placed on plates spotted with different concentrations of TDZD analogues after allowing the compounds to be evenly distributed on the plates (˜1 hour after adding drugs to plates). Vehicle-only (DMSO) controls are included in each experiment, as a baseline for drug effects in experimental groups. Young-adult AM141 (day-3 adults) were transferred on alternate days onto fresh plates that contained the same doses of compounds, with fresh E. coli to prevent starvation of worms. Equal samples (n=25) were randomly picked from experimental groups and control group for microscopic imaging. Using an in-house plugin for ImageJ software (NIH), several images of AM141 were processed for aggregate count per worm. The fluorescence intensity of each aggregate (indicating the size/content of protein aggregates) was also measured. Each drug treatment was repeated multiple times to validate the results.

For the compound `O=c1sn(CCI)c(=O)n1Cc1ccccc1` [PNR-962], in test [1] (5 μM (FIG. 4)), the protein aggregation entry was “reduces protein aggregation”. Besides, in test [1] (data not shown), the “further lowering of total amyloid-staining intensity relative to TDZD-8” value is reported as 14%. The “paralysis rescued / reduced” value in test [2] is reported as greater than 75%. Further, in test [3] (5-μM, 3 days of exposure (FIG. 6)), the “number of Q40::YFP aggregates” value is recorded as “reduces huntingtin-like aggregates; also recorded: reduced the number of aggregates significantly”. Further, in test [3] (C. elegans model of Huntington's Disease (FIG. 7)), the “number of aggregation foci” value is “decreases”. In addition, in test [3] (not shown), the “aggregate intensity (content of Q40-YFP)” value is on record as “reduced aggregate intensity”.
